Assay results reported in US8242166B2, “C(10) ethyl ester and C(10) cyclopropyl ester substituted taxanes” (Florida State University Research Foundation, Inc., priority 2008, dated 2012).
Where two headings read alike, the source gives them in different places.

Experiments:
HCT116 = assay: MTT cytotoxicity (IC50), HCT116; assay type: cell-based; details: Homo sapiens, HCT-116, 72 h, read-out: IN Vitro IC50 (nm) HCT116
Protocol: (§1) All cell lines were maintained in RPMI-1640 tissue culture medium (TCM, supplemented with antibiotics and 10% fetal bovine serum) and cultured at 37° C. in humidified air containing 5% CO2. To assess the antiproliferative effects of the test compounds, 172 μL of tumor cell suspension (1.45×10^4 cells/ml) were added to each well of a 96-well plate and incubated for 24 h at 37° C. in 5% CO2 in air to allow cells to adhere. Seven 2-fold drug dilutions in TCM/DMSO were performed in triplicate in separate 96-well plates and 28 μL was transferred to the wells containing tumor cells (200 μL final volume/0.1% DMSO). Plates were incubated for 72 h and cell viability was determined by adding 50 μL of warm TCM containing 5 mg/mL MTT (3-[4,5-dimethylthiazol-2-yl]-2,5-diphenyltetrazolium bromide) to each well and incubating for 1 h at 37° C. Plates were processed and the absorbances of the resulting solutions were measured by a plate reader at 570 nm. […] (GraphPad Prism version 4.00 for Windows). Studies were conducted by Taxolog, Inc., Tallahassee, Fla.

DLD-1 = assay: MTT cytotoxicity (IC50), DLD-1; assay type: cell-based; details: Homo sapiens
Protocol: as §1, with “Compound 17932 was tested in four of these cell lines, while the remaining compounds were tested in all of these cell lines. All” for “All”

HT29 = assay: MTT cytotoxicity (IC50), HT29; assay type: cell-based; details: Homo sapiens, HT-29, 72 h, read-out: IN Vitro IC50 (nm) HT29
Protocol: as §1, with “Compound 17932 was tested in four of these cell lines, while the remaining compounds were tested in all of these cell lines. All” for “All”

786-0 = assay: MTT cytotoxicity (IC50), 786-0; assay type: cell-based; details: Homo sapiens
Protocol: as §1, with “Compound 17932 was tested in four of these cell lines, while the remaining compounds were tested in all of these cell lines. All” for “All”

TK-10 = assay: MTT cytotoxicity (IC50), TK-10; assay type: cell-based; details: Homo sapiens, 72 h, read-out: IN Vitro IC50 (nm) TK10
Protocol: as §1, with “Compound 17932 was tested in four of these cell lines, while the remaining compounds were tested in all of these cell lines. All” for “All”

OVCAR4 = assay: MTT cytotoxicity (IC50), OVCAR4; assay type: cell-based; details: Homo sapiens, OVCAR-4, 72 h, read-out: IN Vitro IC50 (nm) OVCAR4
Protocol: as §1, with “Compound 17932 was tested in four of these cell lines, while the remaining compounds were tested in all of these cell lines. All” for “All”

HOP-18 = assay: MTT cytotoxicity (IC50), HOP-18; assay type: cell-based; details: Homo sapiens, 72 h, read-out: IN Vitro IC50 (nm) HOP18
Protocol: as §1, with “Compound 17932 was tested in four of these cell lines, while the remaining compounds were tested in all of these cell lines. All” for “All”

SNB-19 = assay: MTT cytotoxicity (IC50), SNB-19; assay type: cell-based; details: Homo sapiens, 72 h, read-out: IN Vitro IC50 (nm) SNB19
Protocol: as §1, with “Compound 17932 was tested in four of these cell lines, while the remaining compounds were tested in all of these cell lines. All” for “All”

[1] = system: HT29 human tumor xenografts; assay: HT29 xenograft study e212, oral and i.v. (Example 26); details: for CR (complete regression) / NTR NTRa/u / NTR NTRm / PR (partial regression) / TFS (tumor-free survivor) / TR (treatment-related death): n=6
Description: The formulation for oral studies was an ethanol and Cremophor formulation while the formulation for compound 18365 and compound 19244 dosed i.v. was 5% ethanol and 95% Liposyn II 20%.

[2] = system: human A375 melanoma xenograft; assay: A375 xenograft study e209 (Example 27); details: 30 mg/kg iv q4d × 4; for CR (complete regression) / NTR NTRa/u / NTR NTRm / PR (partial regression) / TFS (tumor-free survivor) / TR (treatment-related death): n=6; for % TGD / Median TTE / T-C: vehicle EL
Protocol: The endpoint was a tumor volume of 2,000 mm^3 and the study was terminated on Day 56. Efficacy was assessed by tumor growth delay and the number of partial and complete regressions. Animals with a CR that persisted through Day 56 were classified as long-term tumor-free survivors (TFS).

[3] = system: human MX-1 breast carcinoma; assay: MX1 xenograft study e219R1, i.v. single dose (Example 17); details: for CR (complete regression) / NTR (non-treatment-related death) / PR (partial regression) / TFS (tumor-free survivor) / TR (treatment-related death): n=5
[4] = MTT, 72 h, read-out: IN Vitro IC50 (nm) DLD1
[5] = Resistance MDR1+, read-out: DLD1 Colon (Table 4, quantity not named; IC50 values as Table 2)
[6] = MTT, 72 h, read-out: IN Vitro IC50 (nm) 786-0
[7] = Resistance MDR1+, read-out: 786-0 Renal (Table 4, quantity not named; IC50 values as Table 2)
[8] = 25 mg/kg iv q4d × 4, vehicle EL
[9] = 50 mg/kg po q4d × 4, vehicle EC

CCC(=O)O[C@H]1C(=O)[C@@]2(C)C([C@H](OC(=O)c3ccccc3)[C@]3(O)C[C@H](OC(=O)[C@H](O)[C@@H](NC(=O)OC4CCCC4)c4cccs4)C(C)=C1C3(C)C)[C@]1(OC(C)=O)CO[C@@H]1C[C@@H]2O (stereo partly drawn) [Compound 18926]
IC50 (HCT116): 0.3 nM
IC50 (DLD-1; [4]): 0.8 nM
IC50 (DLD-1; [5]): 0.8 nM
IC50 (HT29): 0.4 nM
IC50 (786-0; [6]): 0.7 nM
IC50 (786-0; [7]): 0.7 nM
IC50 (TK-10): 0.3 nM
IC50 (OVCAR4): 1 nM
IC50 (HOP-18): 1.6 nM
IC50 (SNB-19): 1 nM
CR (complete regression) ([1]; 25 mg/kg iv q4d × 4): 5
NTR NTRa/u ([1]; 25 mg/kg iv q4d × 4): 0
NTR NTRm ([1]; 25 mg/kg iv q4d × 4): 0
PR (partial regression) ([1]; 25 mg/kg iv q4d × 4): 0
TFS (tumor-free survivor) ([1]; 25 mg/kg iv q4d × 4): 5
TR (treatment-related death) ([1]; 25 mg/kg iv q4d × 4): 1
% TGD [1, 8]: 237.14%
BW Nadir [1, 8]: 13.5% (17)
MTV (n), Day 59 [1, 8]: 0.00 (5) mm^3
Median TTE [1, 8]: 59 days
T-C [1, 8]: 41.5 days
CR (complete regression) ([1]; 50 mg/kg po q4d × 4): 1
NTR NTRa/u ([1]; 50 mg/kg po q4d × 4): 0
NTR NTRm ([1]; 50 mg/kg po q4d × 4): 0
PR (partial regression) ([1]; 50 mg/kg po q4d × 4): 5
TFS (tumor-free survivor) ([1]; 50 mg/kg po q4d × 4): 1
TR (treatment-related death) ([1]; 50 mg/kg po q4d × 4): 0
% TGD [1, 9]: 237.14%
BW Nadir [1, 9]: 10.4% (17)
MTV (n), Day 59 [1, 9]: 20.25 (6) mm^3
Median TTE [1, 9]: 59 days
T-C [1, 9]: 41.5 days
BW Nadir [2]: 13.3% (18)
MTV(n), Day 56 [2]: 0.00 (6) mm^3
CR (complete regression) [2]: 6
NTR NTRa/u [2]: 0
NTR NTRm [2]: 0
PR (partial regression) [2]: 0
TFS (tumor-free survivor) [2]: 6
TR (treatment-related death) [2]: 0
% TGD [2]: 210.08%
Median TTE [2]: 56 days
T-C [2]: 37.94 days
% TGD ([3]; 7.5 mg/kg iv qd × 1): 16.46%
BW Nadir ([3]; 7.5 mg/kg iv qd × 1): −7.6% (3)
Median TTE ([3]; 7.5 mg/kg iv qd × 1): 37.43 days
T-C ([3]; 7.5 mg/kg iv qd × 1): 5.29 days
activity (statistical significance) ([3]; 7.5 mg/kg iv qd × 1): non-significant activity
maximum group mean BW loss ([3]; 7.5 mg/kg iv qd × 1): 7.6%
CR (complete regression) ([3]; 7.5 mg/kg iv qd × 1): 0
NTR (non-treatment-related death) ([3]; 7.5 mg/kg iv qd × 1): 0
PR (partial regression) ([3]; 7.5 mg/kg iv qd × 1): 0
TFS (tumor-free survivor) ([3]; 7.5 mg/kg iv qd × 1): 0
TR (treatment-related death) ([3]; 7.5 mg/kg iv qd × 1): 0
% TGD ([3]; 15 mg/kg iv qd × 1): 89.79%
BW Nadir ([3]; 15 mg/kg iv qd × 1): −6.6% (4)
MTV (n), Day 60 ([3]; 15 mg/kg iv qd × 1): 0.00 (4) mm^3
Median TTE ([3]; 15 mg/kg iv qd × 1): 61 days
T-C ([3]; 15 mg/kg iv qd × 1): 28.86 days
maximum group mean BW loss ([3]; 15 mg/kg iv qd × 1): 6.6%
CR (complete regression) ([3]; 15 mg/kg iv qd × 1): 4
NTR (non-treatment-related death) ([3]; 15 mg/kg iv qd × 1): 0
PR (partial regression) ([3]; 15 mg/kg iv qd × 1): 0
TFS (tumor-free survivor) ([3]; 15 mg/kg iv qd × 1): 4
TR (treatment-related death) ([3]; 15 mg/kg iv qd × 1): 0
% TGD ([3]; 30 mg/kg iv qd × 1): 89.79%
BW Nadir ([3]; 30 mg/kg iv qd × 1): −15.5% (5)
MTV (n), Day 60 ([3]; 30 mg/kg iv qd × 1): 0.00 (5) mm^3
Median TTE ([3]; 30 mg/kg iv qd × 1): 61 days
T-C ([3]; 30 mg/kg iv qd × 1): 28.86 days
maximum group mean BW loss ([3]; 30 mg/kg iv qd × 1): 15.5%
CR (complete regression) ([3]; 30 mg/kg iv qd × 1): 5
NTR (non-treatment-related death) ([3]; 30 mg/kg iv qd × 1): 0
PR (partial regression) ([3]; 30 mg/kg iv qd × 1): 0
TFS (tumor-free survivor) ([3]; 30 mg/kg iv qd × 1): 5
TR (treatment-related death) ([3]; 30 mg/kg iv qd × 1): 0
minimal effective dose ([3]; iv qd × 1, lowest dose with statistically significant results and at least one D61 survivor or regression): 15 mg/kg

CCC(=O)O[C@H]1C(=O)[C@@]2(C)C([C@H](OC(=O)c3ccccc3)[C@]3(O)C[C@H](OC(=O)[C@H](O)[C@@H](NC(=O)OC4CCC4)c4cccs4)C(C)=C1C3(C)C)[C@]1(OC(C)=O)CO[C@@H]1C[C@@H]2O (stereo partly drawn) [Compound 19244]
IC50 (HCT116): 0.4 nM
IC50 (DLD-1; [4]): 1.8 nM
IC50 (DLD-1; [5]): 1.8 nM
IC50 (HT29): 0.6 nM
IC50 (786-0; [6]): 0.9 nM
IC50 (786-0; [7]): 0.9 nM
IC50 (TK-10): 0.4 nM
IC50 (OVCAR4): 2.7 nM
IC50 (HOP-18): 1.5 nM
IC50 (SNB-19): 0.9 nM
activity in the HT29 xenograft tumor model ([1]; every four day schedule for four doses): oral and IV activity
BW Nadir [2]: 10.4% (18)
MTV(n), Day 56 [2]: 0.00 (6) mm^3
CR (complete regression) [2]: 6
NTR NTRa/u [2]: 0
NTR NTRm [2]: 0
PR (partial regression) [2]: 0
TFS (tumor-free survivor) [2]: 6
TR (treatment-related death) [2]: 0
% TGD [2]: 210.08%
Median TTE [2]: 56 days
T-C [2]: 37.94 days
